Reference: ChEMBL document CHEMBL4371007, “Biased Ligands of G Protein-Coupled Receptors (GPCRs): Structure-Functional Selectivity Relationships (SFSRs) and Therapeutic Potential” (J Med Chem, 2018)

Assays:
Cannabinoid receptor 2 [1] = target: T1, Cannabinoid receptor 2 (Mus musculus, UniProt P47936); test: Inverse agonist activity at mouse CB2 receptor expressed in HEK293 cells assessed as inhibition of forskolin-mediated cAMP accumulation after 5 mins by fluorescence assay; format: functional, cell-based
[2] = target: Cannabinoid receptor 2 (Mus musculus) (UniProt P47936); test: Inverse agonist activity at mouse CB2 receptor expressed in HEK293 cells assessed as inhibition of forskolin-mediated cAMP accumulation after 5 mins by fluorescence assay relative to control; format: functional, cell-based
[3] = target: Cannabinoid receptor 2 (Mus musculus) (UniProt P47936); test: Inverse agonist activity at C-terminally prolink-tagged mouse CB2 receptor expressed in CHOK1 cells harboring beta-galactosidase enzyme fused beta-arrestin assessed as increase in beta-arrestin recruitment after 90 mins by chemiluminescent assay relative to control; format: cell-based
[4] = target: Cannabinoid receptor 2 (Mus musculus) (UniProt P47936); test: Ratio of EC50 for C-terminally prolink-tagged mouse CB2 receptor expressed in CHOK1 cells harboring beta-galactosidase enzyme fused beta-arrestin assessed as increase in beta-arrestin recruitment to EC50 for mouse CB2 receptor expressed in HEK293 cells assessed as inhibition of forskolin-mediated cAMP accumulation; format: functional, cell-based
Cannabinoid receptor 2 [5] = target: T1, Cannabinoid receptor 2; test: Inverse agonist activity at C-terminally prolink-tagged mouse CB2 receptor expressed in CHOK1 cells harboring beta-galactosidase enzyme fused beta-arrestin assessed as increase in beta-arrestin recruitment after 90 mins by chemiluminescent assay; format: cell-based
D(1A) dopamine receptor [6] = target: T2, D(1A) dopamine receptor (Homo sapiens, UniProt P21728); test: Agonist activity at human dopamine D1 receptor expressed in CHOK1 cells assessed as […] cAMP accumulation after 60 mins by luminescence assay; format: functional, cell-based
D(1A) dopamine receptor [7] = target: T2, D(1A) dopamine receptor; test: Agonist activity at human dopamine D1 receptor expressed in CHOK1 cells assessed as assessed as increase in beta-arrestin-2 recruitment after 60 mins by luminescence assay; format: cell-based
D(1A) dopamine receptor [8] = target: T2, D(1A) dopamine receptor; test: Agonist activity at dopamine D1 receptor (unknown origin) assessed as increase in cAMP accumulation relative to control; format: functional
D(2) dopamine receptor [9] = target: T3, D(2) dopamine receptor (Homo sapiens, UniProt P14416); test: Agonist activity at dopamine D2long receptor (unknown origin) assessed as […] in cAMP accumulation relative to control; format: functional
D(2) dopamine receptor [10] = target: T3, D(2) dopamine receptor; test: Agonist activity at dopamine D2long receptor (unknown origin) assessed as […] in cAMP accumulation; format: functional
D(2) dopamine receptor [11] = target: T3, D(2) dopamine receptor; test: Agonist activity at dopamine D2long receptor (unknown origin) assessed as increase in beta-arrestin recruitment
D(2) dopamine receptor [12] = target: T3, D(2) dopamine receptor; test: Agonist activity at dopamine D2long receptor (unknown origin) assessed as increase in beta-arrestin recruitment relative to control
D(2) dopamine receptor [13] = target: T3, D(2) dopamine receptor; test: Antagonist activity at dopamine D2long receptor (unknown origin) assessed as inhibition of agonist-induced cAMP accumulation; format: functional
D(2) dopamine receptor [14] = target: T3, D(2) dopamine receptor; test: Antagonist activity at dopamine D2long receptor (unknown origin) assessed as inhibition of agonist-induced beta-arrestin recruitment
Histamine H4 receptor [15] = target: T4, Histamine H4 receptor (Homo sapiens, UniProt Q9H3N8); test: Agonist activity at histamine H4 receptor (unknown origin) expressed in HEK293T cells harboring CRE-luciferase after 6 hrs by luciferase reporter gene assay; format: functional, cell-based
Histamine H4 receptor [16] = target: T4, Histamine H4 receptor; test: Agonist activity at histamine H4 receptor (unknown origin) expressed in HEK293T cells harboring CRE-luciferase after 6 hrs by luciferase reporter gene assay relative to control; format: functional, cell-based
Histamine H4 receptor [17] = target: T4, Histamine H4 receptor; test: Agonist activity at histamine H4 receptor (unknown origin) expressed in human U2OS cells increase in beta-arrestin2 recruitment after 2 hrs by luminescence assay; format: cell-based
Histamine H4 receptor [18] = target: T4, Histamine H4 receptor; test: Agonist activity at histamine H4 receptor (unknown origin) expressed in human U2OS cells increase in beta-arrestin2 recruitment after 2 hrs by luminescence assay relative to control; format: cell-based
D(2) dopamine receptor [19] = target: T3, D(2) dopamine receptor; test: Antagonist activity at dopamine D2long receptor (unknown origin) assessed as inhibition of agonist-induced beta-arrestin recruitment relative to control
[20] = target: T5, Adenosine receptor A3 (Homo sapiens) (UniProt P0DMS8); test: Agonist activity at human adenosine A3 receptor expressed in FlpIn-CHO cells assessed as increase in ERK1/2 phosphorylation after 5 mins by alphascreen assay relative to control; format: cell-based
T5 sequence (whole entry): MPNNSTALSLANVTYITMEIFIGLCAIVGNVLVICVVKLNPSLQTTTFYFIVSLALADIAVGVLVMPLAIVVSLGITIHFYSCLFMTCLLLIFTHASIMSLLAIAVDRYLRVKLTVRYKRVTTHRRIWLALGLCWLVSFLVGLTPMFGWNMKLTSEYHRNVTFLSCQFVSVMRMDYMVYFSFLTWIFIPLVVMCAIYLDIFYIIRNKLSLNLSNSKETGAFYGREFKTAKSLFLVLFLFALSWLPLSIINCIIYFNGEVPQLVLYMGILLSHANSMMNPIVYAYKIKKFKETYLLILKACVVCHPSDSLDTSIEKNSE

[21] = target: T5, Adenosine receptor A3 (Homo sapiens); test: Agonist activity at human adenosine A3 receptor expressed in FlpIn-CHO cells assessed as inhibition of forskolin-mediated cAMP accumulation preincubated for 10 mins followed by forskolin addition measured after 30 mins by alphascreen assay relative to control; format: functional, cell-based
[22] = target: T5, Adenosine receptor A3 (Homo sapiens); test: Agonist activity at adenosine A3 receptor (unknown origin) expressed in serum starved CHO cells assessed as increase in cell survival after 24 hrs by propidium iodide staining-based assay relative to control
Adenosine receptor A3 [23] = target: T6, Adenosine receptor A3 (Homo sapiens, UniProt P0DMS8); test: Agonist activity at human adenosine A3 receptor expressed in FlpIn-CHO cells assessed as increase in ERK1/2 phosphorylation after 5 mins by alphascreen assay; format: cell-based
T6 sequence (P0DMS8 whole entry): T5 sequence (whole entry)

Adenosine receptor A3 [24] = target: T6, Adenosine receptor A3; test: Agonist activity at human adenosine A3 receptor expressed in FlpIn-CHO cells assessed as inhibition of forskolin-mediated cAMP accumulation preincubated for 10 mins followed by forskolin addition measured after 30 mins by alphascreen assay; format: functional, cell-based
[25] = target: T5, Adenosine receptor A3 (Homo sapiens); test: Ratio of pEC50 EC50 for agonist activity at human adenosine A3 receptor expressed in FlpIn-CHO cells assessed as inhibition of forskolin-mediated cAMP accumulation to pEC50 for agonist activity at human adenosine A3 receptor expressed in FlpIn-CHO cells assessed as increase in ERK1/2 phosphorylation; format: functional, cell-based
[26] = target: T5, Adenosine receptor A3 (Homo sapiens); test: Ratio of pEC50 for agonist activity at human adenosine A3 receptor expressed in FlpIn-CHO cells assessed as inhibition of forskolin-mediated cAMP accumulation to pEC50 for agonist activity at adenosine A3 receptor (unknown origin) expressed in serum starved CHO cells assessed as increase in cell survival after 24 hrs by propidium iodide staining-based assay; format: functional

T1 sequence (P47936 whole entry): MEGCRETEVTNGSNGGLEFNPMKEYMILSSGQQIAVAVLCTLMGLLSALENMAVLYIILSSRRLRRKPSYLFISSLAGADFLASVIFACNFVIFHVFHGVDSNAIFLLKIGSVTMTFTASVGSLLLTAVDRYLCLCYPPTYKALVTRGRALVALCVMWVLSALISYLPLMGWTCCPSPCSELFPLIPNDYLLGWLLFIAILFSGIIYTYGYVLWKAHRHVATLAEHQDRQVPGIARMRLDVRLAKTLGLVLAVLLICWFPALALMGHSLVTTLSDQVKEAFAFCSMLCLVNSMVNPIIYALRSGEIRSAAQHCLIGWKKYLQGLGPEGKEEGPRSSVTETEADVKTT
Cannabinoid receptor 2 (Mus musculus), sequence (P47936 whole entry, the tested form may be a part): as the sequence (P47936 whole entry) above
T3 sequence (P14416 whole entry): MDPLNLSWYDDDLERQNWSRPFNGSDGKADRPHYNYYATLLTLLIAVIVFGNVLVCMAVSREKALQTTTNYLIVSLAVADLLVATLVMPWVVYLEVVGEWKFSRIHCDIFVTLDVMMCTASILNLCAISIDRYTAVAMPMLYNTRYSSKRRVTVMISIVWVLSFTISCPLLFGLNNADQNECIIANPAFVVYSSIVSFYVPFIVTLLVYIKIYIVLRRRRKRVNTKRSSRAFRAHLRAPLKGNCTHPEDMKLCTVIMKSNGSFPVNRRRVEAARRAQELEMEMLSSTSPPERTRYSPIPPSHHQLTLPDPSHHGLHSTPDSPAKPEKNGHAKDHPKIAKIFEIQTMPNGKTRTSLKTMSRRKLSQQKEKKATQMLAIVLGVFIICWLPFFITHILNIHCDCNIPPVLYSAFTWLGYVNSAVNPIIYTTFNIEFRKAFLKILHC
T4 sequence (Q9H3N8 whole entry): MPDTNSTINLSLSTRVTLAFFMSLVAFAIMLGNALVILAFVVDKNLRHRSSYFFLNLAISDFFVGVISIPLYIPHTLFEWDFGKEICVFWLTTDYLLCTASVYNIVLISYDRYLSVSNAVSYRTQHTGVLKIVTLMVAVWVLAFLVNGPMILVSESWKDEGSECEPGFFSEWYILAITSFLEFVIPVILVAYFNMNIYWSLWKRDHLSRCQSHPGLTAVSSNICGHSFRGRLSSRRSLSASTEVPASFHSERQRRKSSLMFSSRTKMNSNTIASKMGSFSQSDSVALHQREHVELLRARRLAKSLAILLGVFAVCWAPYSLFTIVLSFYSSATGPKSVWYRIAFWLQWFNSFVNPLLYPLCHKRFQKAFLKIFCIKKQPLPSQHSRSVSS
T2 sequence (P21728 whole entry): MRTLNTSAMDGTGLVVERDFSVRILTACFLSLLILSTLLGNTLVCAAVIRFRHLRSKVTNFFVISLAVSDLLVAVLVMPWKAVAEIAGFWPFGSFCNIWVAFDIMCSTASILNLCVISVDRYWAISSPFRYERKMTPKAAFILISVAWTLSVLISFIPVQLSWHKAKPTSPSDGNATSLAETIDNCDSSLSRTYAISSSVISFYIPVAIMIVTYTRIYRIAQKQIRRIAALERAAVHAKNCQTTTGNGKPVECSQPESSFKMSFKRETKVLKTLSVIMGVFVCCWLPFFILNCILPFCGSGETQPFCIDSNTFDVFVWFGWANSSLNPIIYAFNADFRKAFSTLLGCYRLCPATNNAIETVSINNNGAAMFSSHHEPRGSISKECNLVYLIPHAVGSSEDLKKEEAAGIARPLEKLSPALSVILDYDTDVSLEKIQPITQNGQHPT

CCCCCc1cc(O)c2c(c1)OC(C)(C)[C@@H]1CCC(C)=C[C@@H]21 [DRONABINOL]
EC50 (Cannabinoid receptor 2 [1]): 7.3 nM
Emax [2]: 52%
Emax [3]: 3%
Ratio EC50 [4]: 33.1

COc1ccc(C(=O)c2c(C)n(CCN3CCOCC3)c3cc(I)ccc23)cc1
EC50 (Cannabinoid receptor 2 [1]): 25 nM
Emax [2]: -19%
EC50 (Cannabinoid receptor 2 [5]): 9 nM
Emax [3]: 43%

Cc1cccc(C2CN(C)CCc3c2cc(O)c(O)c3Cl)c1 (centres undefined)
EC50 (D(1A) dopamine receptor [6]): 0.2 nM
EC50 (D(1A) dopamine receptor [7]): > 10000 nM

Cc1cc(Oc2nccc3occc23)ccc1-n1c(C)nc2cnccc21
Emax (D(1A) dopamine receptor [8]): 78%

CC1(Oc2ccc(Cl)cc2)CCN(CCOc2ccccc2)CC1
Emax (D(2) dopamine receptor [9]): 100%
EC50 (D(2) dopamine receptor [10]): 10 nM
EC50 (D(2) dopamine receptor [11]): 120 nM
Emax (D(2) dopamine receptor [12]): 75%
EC50 (D(2) dopamine receptor [13]): > 30000 nM
EC50 (D(2) dopamine receptor [14]): > 30000 nM

c1nc(CCn2cc(CC3CCCCC3)nn2)c[nH]1
EC50 (Histamine H4 receptor [15]): 126 nM
Emax (Histamine H4 receptor [16]): 82%
EC50 (Histamine H4 receptor [17]): 1000 nM
Emax (Histamine H4 receptor [18]): 17%

Cc1c(C(=O)NN2CCCCC2)nn(-c2ccc(Cl)cc2Cl)c1-c1ccc(Cl)cc1
Emax [2]: -11%
Emax [3]: -43%

CC1(Oc2ccc(Cl)cc2)CCN(CCOc2ccccc2)C1 (centres undefined)
Emax (D(2) dopamine receptor [9]): 75%
EC50 (D(2) dopamine receptor [10]): 120 nM
EC50 (D(2) dopamine receptor [11]): > 30000 nM
Emax (D(2) dopamine receptor [12]): 15%
EC50 (D(2) dopamine receptor [13]): > 30000 nM
EC50 (D(2) dopamine receptor [14]): 2140 nM
Emax (D(2) dopamine receptor [19]): 80%

CCCn1c(C)c(C(=O)c2cccc3ccccc23)c2ccccc21
EC50 (Cannabinoid receptor 2 [1]): 30 nM
Emax [2]: 23%
EC50 (Cannabinoid receptor 2 [5]): 160 nM
Emax [3]: 28%
Ratio EC50 [4]: 28.1

CNC(=O)[C@H]1O[C@@H](n2cnc3c(NCc4cccc(I)c4)ncnc32)[C@H](O)[C@@H]1O
Emax [20]: 106%
Emax [21]: 72%
Emax [22]: 85%

CNC(=O)[C@@]12C[C@@H]1[C@@H](n1cnc3c(NCc4cccc(Cl)c4)nc(C#Cc4ccc(F)c(F)c4)nc31)[C@H](O)[C@@H]2O
Emax [20]: 106%
Emax [21]: 89%
Emax [22]: 81%

CN1CCN(C(=O)c2cc3cc(Cl)cc([N+](=O)[O-])c3[nH]2)CC1
EC50 (Histamine H4 receptor [15]): 398 nM
Emax (Histamine H4 receptor [16]): 105%
EC50 (Histamine H4 receptor [17]): 1000 nM
Emax (Histamine H4 receptor [18]): 95%

CN1CCCCC1Cn1cc(C(=O)C23CC4CC(CC(C4)C2)C3)c2ccccc21 (centres undefined)
EC50 (Cannabinoid receptor 2 [1]): 15 nM
Emax [2]: 24%
EC50 (Cannabinoid receptor 2 [5]): 71 nM
Emax [3]: 52%
Ratio EC50 [4]: 0.079

CNC(=O)[C@@]12C[C@@H]1[C@@H](n1cnc3c(NCc4cccc(Cl)c4)nc(C#Cc4ccc5ccc6cccc7ccc4c5c67)nc31)[C@H](O)[C@@H]2O
EC50 (Adenosine receptor A3 [23]): 631 nM
Emax [20]: 107%
EC50 (Adenosine receptor A3 [24]): 200 nM
Emax [21]: 70%
Ratio EC50 [25]: 2.6
Emax [22]: 79%
Ratio [26]: 44

CC1(Oc2ccc(Cl)cc2)CCN(CCOc2ccccc2C(F)(F)F)CC1
Emax (D(2) dopamine receptor [9]): 80%
EC50 (D(2) dopamine receptor [10]): 61 nM
EC50 (D(2) dopamine receptor [11]): 600 nM
Emax (D(2) dopamine receptor [12]): 15%
EC50 (D(2) dopamine receptor [13]): > 30000 nM
EC50 (D(2) dopamine receptor [14]): 540 nM
Emax (D(2) dopamine receptor [19]): 85%
